Experimental data reported in patent US12156917B2, “CNP prodrugs with carrier attachment at the ring moiety” (ASCENDIS PHARMA GROWTH DISORDERS A/S, priority 2016, dated 2024).
Bridge positions count the residues as written; N and C are the ends. Ends that are not written are not given here.

Tests used:
[1] = in vivo; cited from earlier work
[2] = doses up to 15 μg/kg, healthy volunteers; cited from earlier work
Crl:CD1(ICR) mice = assay: Evaluation of cardiovascular effects in the conscious telemetered mouse (subcutaneous administration); assay type: in vivo
Experimental: Male Crl:CD1(ICR) mice (age range 8-13 weeks and body weight range 27.3-35.6 g at start of dosing) were surgically implanted with a TA11PA-C10 telemetry transmitter (Data Sciences International (DSI)) in the carotid artery. The body of the transmitter was placed subcutaneously in the lateral flank of the mouse. The mice were dosed subcutaneously in a latin square crossover design with at least 72 hours between dosing occasions. […] At least four mice were included at each dose level. Blood pressure (systolic (SAP), diastolic (DAP) and mean (MAP) and heart rate (HR, derived from blood pressure), were recorded using a digital data capture system linked with a DSI™ Ponemah data acquisition and analysis system. The capture system allowed recording of the cardiovascular parameters whilst the mice were in individual cages. On the day of each test session the animals were weighed and a predose recording was performed for at least 60 min prior to dosing. Each mouse was returned to the home cage and the cardiovascular parameters were recorded for approximately 48 hours postdose. Blood pressure and HR were reported at the following time points: −30, −20, −10, 5, 15 and 30 min postdose and 1, 2, 6, 12, 18, 24, 30, 36, 42 and 48 hours postdose. Each time point was presented as the average value of five minute's recording prior to the time point. The monitoring period was selected to cover exposure to the test items both prior to and after Tnax.

Compound | half-life [1] [min] | blood pressure effect [2] | MAP predose (mean±SD) (Crl:CD1(ICR) mice; predose, n = 4) [mmHg] | heart rate (HR) (Crl:CD1(ICR) mice; sc, 800 μg CNP-38 eq/kg, up to 48 hours postdose) | MAP 5 min post dose (mean±SD) (Crl:CD1(ICR) mice; sc, 800 μg CNP-38 eq/kg, n = 4) [mmHg] | MAP 15 min post dose (mean±SD) (Crl:CD1(ICR) mice; sc, 800 μg CNP-38 eq/kg, n = 4) [mmHg] | MAP 30 min post dose (mean±SD) (Crl:CD1(ICR) mice; sc, 800 μg CNP-38 eq/kg, n = 4) [mmHg]
BMN-111: modified recombinant human C-type Natriuretic Peptide; 17 amino acids added to form a 39 amino acid CNP analog (PGQEHPNARKYKGANKKGLSKGCFGLKLDRIGSMSGLGC; disulfide 23-39; chains of the INN, looked up) | 20 | mild hypotension | – | – | – | – | –
CC[C@H](C)[C@@H]1NC(=O)[C@H](CCCNC(=N)N)NC(=O)[C@H](CC(=O)O)NC(=O)[C@H](CC(C)C)NC(=O)[C@H](CCCCN)NC(=O)[C@H](CC(C)C)NC(=O)CNC(=O)[C@H](Cc2ccccc2)NC(=O)[C@@H](NC(=O)CNC(=O)[C@H](CCCCN)NC(=O)[C@H](CO)NC(=O)[C@H](CC(C)C)NC(=O)CNC(=O)[C@H](CCCCN)NC(=O)[C@H](CCCCN)NC(=O)[C@H](CC(N)=O)NC(=O)[C@H](C)NC(=O)CNC(=O)[C@H](CCCCN)NC(=O)[C@H](Cc2ccc(O)cc2)NC(=O)[C@H](CCCCN)NC(=O)[C@H](CCCNC(=N)N)NC(=O)[C@H](C)NC(=O)[C@H](CC(N)=O)NC(=O)[C@@H]2CCCN2C(=O)[C@H](Cc2c[nH]cn2)NC(=O)[C@H](CCC(=O)O)NC(=O)[C@H](CCC(N)=O)NC(=O)[C@@H](N)CC(C)C)CSSC[C@@H](C(=O)O)NC(=O)CNC(=O)[C@H](CC(C)C)NC(=O)CNC(=O)[C@H](CO)NC(=O)[C@H](CCSC)NC(=O)[C@H](CO)NC(=O)CNC1=O [CNP-38] | – | – | 106.8 ± 13.4 | not impacted | 102.0 ± 7.5 | 89.5 ± 29.4 | 99.5 ± 25.2
